From publication PMC5769417, “Single- and Multiple-Dose Trials to Determine the Pharmacokinetics, Safety, Tolerability, and Sex Effect of Oral Ginsenoside Compound K in Healthy Chinese Volunteers” (Frontiers in Pharmacology, 2018)

Tested on: healthy Chinese volunteers
Assay: Multiple-dose trial, safety and tolerability (adverse events)
Type: in vivo, human
Experimental: Multiple-dose pharmacokinetics: The multiple-dose trial could be carried out on the condition that a single-dose of CK (25–800 mg) was safe and well tolerated in healthy Chinese volunteers. After breakfast, one of three doses (100, 200, or 400 mg) of CK or placebo were given to 36 eligible subjects randomized to each dose (male:female = 1:1), in which 10 were on active treatment and 2 were on matching placebo. CK were administered as a single dose on day 1 and then as repeated doses for 9 consecutive days (days 7–15 of the trial), and the drug was administered once-daily in the morning after meals.
Safety was evaluated by continuous observation of adverse events (AEs), monitoring of vital signs, ECG, hematology, biochemistry, and urinalysis at baseline, during the trials at the set time points following drug administration, and at follow-up visits after study completion. AEs were classified by their intensity into mild, moderate and severe. Additionally, the AEs were also classified according their relationship to the test drug as positive, probable, possible, remote, or unrelated. The severity of the AEs, as well as their relationship to test drug, was assessed by a qualified physician in the unit. Clinically relevant changes in vital signs, ECG and laboratory parameters were defined as marked abnormalities. ECG were recorded in the semisupine position after a rest of at least 5 min. It is worth noting that all the information, including symptoms and signs after dosing or the medications that the subjects were concomitantly taking must be recorded on the case-report form by investigators. All available data from subjects who received the test drug and placebo were included in the summaries of the safety data and were descriptively analyzed. In addition, the differences between laboratory parameters at baseline and after drug treatment were analyzed to determine whether there were clinical significances.
All the safety data, including vital signs, laboratory indexes and ECG, were descriptively analyzed, and the statistical analyses were conducted to evaluate the effects of the test drug by comparing the differences between before and after drug treatment, between the test drug group and the placebo group and among the different dose groups.

Compound: CC(C)=CCC[C@](C)(OC1O[C@H](CO)[C@@H](O)[C@H](O)[C@H]1O)[C@H]1CC[C@]2(C)[C@@H]1[C@H](O)C[C@@H]1[C@@]3(C)CC[C@H](O)C(C)(C)[C@@H]3CC[C@]12C (stereo partly drawn) [CK, 20-O-beta-D-glucopyranosyl-20(S)-protopanaxadiol]
- AEs positively relevant to CK: 20 cases
- AEs possibly related to CK: 14 cases
- AEs probably related to CK: 23 cases
- Alkaline phosphatase increased (study drug-related AE) (100 mg (n = 10)): 0 number of subjects (%)
- Any AEs (study drug-related) (100 mg (n = 10)): 7 (19.4) number of subjects (%)
- Bellyache (study drug-related AE) (100 mg (n = 10)): 0 number of subjects (%)
- Blood white cells increased (study drug-related AE) (100 mg (n = 10)): 0 number of subjects (%)
- Diarrhea (study drug-related AE) (100 mg (n = 10)): 3 (8.3) number of subjects (%)
- Direct bilirubin increased (study drug-related AE) (100 mg (n = 10)): 2 (5.6) number of subjects (%)
- Dizziness (study drug-related AE) (100 mg (n = 10)): 4 (11.1) number of subjects (%)
- Headache (study drug-related AE) (100 mg (n = 10)): 0 number of subjects (%)
- Loss of appetite (study drug-related AE) (100 mg (n = 10)): 2 (5.6) number of subjects (%)
- Nausea (study drug-related AE) (100 mg (n = 10)): 1 (2.8) number of subjects (%)
- Rash (study drug-related AE) (100 mg (n = 10)): 0 number of subjects (%)
- Subcutaneous bleeding (double forearm) (study drug-related AE) (100 mg (n = 10)): 0 number of subjects (%)
- Total bilirubin increased (study drug-related AE) (100 mg (n = 10)): 0 number of subjects (%)
- Alkaline phosphatase increased (study drug-related AE) (200 mg (n = 10)): 1 (2.8) number of subjects (%)
- Any AEs (study drug-related) (200 mg (n = 10)): 10 (27.8) number of subjects (%)
- Bellyache (study drug-related AE) (200 mg (n = 10)): 4 (11.1) number of subjects (%)
- Blood white cells increased (study drug-related AE) (200 mg (n = 10)): 0 number of subjects (%)
- Diarrhea (study drug-related AE) (200 mg (n = 10)): 9 (25) number of subjects (%)
- Direct bilirubin increased (study drug-related AE) (200 mg (n = 10)): 1 (2.8) number of subjects (%)
- Dizziness (study drug-related AE) (200 mg (n = 10)): 1 (2.8) number of subjects (%)
- Headache (study drug-related AE) (200 mg (n = 10)): 0 number of subjects (%)
- Loss of appetite (study drug-related AE) (200 mg (n = 10)): 0 number of subjects (%)
- Nausea (study drug-related AE) (200 mg (n = 10)): 0 number of subjects (%)
- Rash (study drug-related AE) (200 mg (n = 10)): 0 number of subjects (%)
- Subcutaneous bleeding (double forearm) (study drug-related AE) (200 mg (n = 10)): 0 number of subjects (%)
- Total bilirubin increased (study drug-related AE) (200 mg (n = 10)): 1 (2.8) number of subjects (%)
- Alkaline phosphatase increased (study drug-related AE) (400 mg (n = 10)): 0 number of subjects (%)
- Any AEs (study drug-related) (400 mg (n = 10)): 9 (25) number of subjects (%)
- Bellyache (study drug-related AE) (400 mg (n = 10)): 1 (2.8) number of subjects (%)
- Blood white cells increased (study drug-related AE) (400 mg (n = 10)): 0 number of subjects (%)
- Diarrhea (study drug-related AE) (400 mg (n = 10)): 9 (25) number of subjects (%)
- Direct bilirubin increased (study drug-related AE) (400 mg (n = 10)): 5 (13.9) number of subjects (%)
- Dizziness (study drug-related AE) (400 mg (n = 10)): 0 number of subjects (%)
- Headache (study drug-related AE) (400 mg (n = 10)): 0 number of subjects (%)
- Loss of appetite (study drug-related AE) (400 mg (n = 10)): 0 number of subjects (%)
- Nausea (study drug-related AE) (400 mg (n = 10)): 0 number of subjects (%)
- Rash (study drug-related AE) (400 mg (n = 10)): 0 number of subjects (%)
- Subcutaneous bleeding (double forearm) (study drug-related AE) (400 mg (n = 10)): 1 (2.8) number of subjects (%)
- Total bilirubin increased (study drug-related AE) (400 mg (n = 10)): 3 (8.3) number of subjects (%)
